Laboratory results taken from US20150125889A1, “IN VITRO DETECTION OF MICROORGANISMS WITH AZOREDUCTASE ACTIVITY” (BIOMÉRIEUX, priority 2012, published 2015).

Key:
Assay in all cases: Reduction of azo substrates over 24 hours at 35° C., microtitration plate (Example 1)
Type in all cases: cell-based
Cronobacter muytjensii = system: Cronobacter muytjensii; set-up: key to RED (substrate reduced or not): RED indicates whether the substrate is reduced (Y) or not (N); RED indicates whether the substrate is reduced (Y) or not (N); key to Co (growth, absorbance at 660 nm) / Decol (substrate decolourized, decrease in absorbance) / Fluo (fluorescence multiplied by 2 relative to substrate-free control): The symbol “+” means good growth/decolourization/significant increase in fluorescence; The symbol “+/−” means difficult growth; The symbol “−” means that there is no growth/decolourization/significant increase in fluorescence; conditions: E. muytjensii, substrate 35 mg/l
In short: (§1)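 Reduction is called when the dye decolourizes or its fluorescence reaches twice the base level of a substrate-free control. Cultures (one strain per species, 0.5 McFarland) grow in Trypcase soya broth containing 35 mg/l substrate for 24 hours at 35° C.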

Geotrichum candidum = system: Geotrichum candidum; set-up: key to RED (substrate reduced or not): RED indicates whether the substrate is reduced (Y) or not (N); RED indicates whether the substrate is reduced (Y) or not (N); key to Co (growth, absorbance at 660 nm) / Decol (substrate decolourized, decrease in absorbance) / Fluo (fluorescence multiplied by 2 relative to substrate-free control): The symbol “+” means good growth/decolourization/significant increase in fluorescence; The symbol “+/−” means difficult growth; The symbol “−” means that there is no growth/decolourization/significant increase in fluorescence; conditions: G. candidum, substrate 35 mg/l
In short: as §1

Kocuria rosea = system: Kocuria rosea; set-up: key to RED (substrate reduced or not): RED indicates whether the substrate is reduced (Y) or not (N); RED indicates whether the substrate is reduced (Y) or not (N); key to Co (growth, absorbance at 660 nm) / Decol (substrate decolourized, decrease in absorbance) / Fluo (fluorescence multiplied by 2 relative to substrate-free control): The symbol “+” means good growth/decolourization/significant increase in fluorescence; The symbol “+/−” means difficult growth; The symbol “−” means that there is no growth/decolourization/significant increase in fluorescence; conditions: K. rosea, substrate 35 mg/l
In short: as §1

Pseudomonas aeruginosa = system: Pseudomonas aeruginosa; set-up: key to RED (substrate reduced or not): RED indicates whether the substrate is reduced (Y) or not (N); RED indicates whether the substrate is reduced (Y) or not (N); key to Co (growth, absorbance at 660 nm) / Decol (substrate decolourized, decrease in absorbance) / Fluo (fluorescence multiplied by 2 relative to substrate-free control): The symbol “+” means good growth/decolourization/significant increase in fluorescence; The symbol “+/−” means difficult growth; The symbol “−” means that there is no growth/decolourization/significant increase in fluorescence; conditions: P. aeruginosa, substrate 35 mg/l
In short: as §1

[1] = system: Staphylococcus epidermidis; set-up: key to RED (substrate reduced or not): RED indicates whether the substrate is reduced (Y) or not (N); RED indicates whether the substrate is reduced (Y) or not (N); key to Co (growth, absorbance at 660 nm) / Decol (substrate decolourized, decrease in absorbance) / Fluo (fluorescence multiplied by 2 relative to substrate-free control): The symbol “+” means good growth/decolourization/significant increase in fluorescence; The symbol “+/−” means difficult growth; The symbol “−” means that there is no growth/decolourization/significant increase in fluorescence; conditions: S. epidermidis, substrate 35 mg/l
In short: as §1

Acinetobacter baumanii = system: Acinetobacter baumanii; set-up: key to RED (substrate reduced or not): RED indicates whether the substrate is reduced (Y) or not (N); RED indicates whether the substrate is reduced (Y) or not (N); key to Decol (substrate decolourized, decrease in absorbance) / Fluo (fluorescence multiplied by 2 relative to substrate-free control) / Co (growth, absorbance at 660 nm): The symbol “+” means good growth/decolourization/significant increase in fluorescence; The symbol “+/−” means difficult growth; The symbol “−” means that there is no growth/decolourization/significant increase in fluorescence; conditions: A. baumannii, substrate 35 mg/l
In short: as §1

Enterococcus faecalis = system: Enterococcus faecalis; set-up: key to RED (substrate reduced or not): RED indicates whether the substrate is reduced (Y) or not (N); RED indicates whether the substrate is reduced (Y) or not (N); key to Decol (substrate decolourized, decrease in absorbance) / Fluo (fluorescence multiplied by 2 relative to substrate-free control) / Co (growth, absorbance at 660 nm): The symbol “+” means good growth/decolourization/significant increase in fluorescence; The symbol “+/−” means difficult growth; The symbol “−” means that there is no growth/decolourization/significant increase in fluorescence; conditions: E. faecalis, substrate 35 mg/l
In short: as §1

Compound: O=C(O)c1cc(/N=N/c2ccc(-c3nc4ccccc4s3)cc2)ccc1O [BF45, 2-Phenyl-benzothiazole-4′-azo-4″- hydroxybenzene-3″-carboxylic acid]
- Co (growth, absorbance at 660 nm) (Cronobacter muytjensii): +
- Decol (substrate decolourized, decrease in absorbance) (Cronobacter muytjensii): −
- Fluo (fluorescence multiplied by 2 relative to substrate-free control) (Cronobacter muytjensii): −
- RED (substrate reduced or not) (Cronobacter muytjensii): N
- Co (growth, absorbance at 660 nm) (Geotrichum candidum): +
- Decol (substrate decolourized, decrease in absorbance) (Geotrichum candidum): −
- Fluo (fluorescence multiplied by 2 relative to substrate-free control) (Geotrichum candidum): −
- RED (substrate reduced or not) (Geotrichum candidum): N
- Co (growth, absorbance at 660 nm) (Kocuria rosea): +
- Decol (substrate decolourized, decrease in absorbance) (Kocuria rosea): −
- Fluo (fluorescence multiplied by 2 relative to substrate-free control) (Kocuria rosea): +
- RED (substrate reduced or not) (Kocuria rosea): Y
- Co (growth, absorbance at 660 nm) (Pseudomonas aeruginosa): +
- Decol (substrate decolourized, decrease in absorbance) (Pseudomonas aeruginosa): −
- Fluo (fluorescence multiplied by 2 relative to substrate-free control) (Pseudomonas aeruginosa): −
- RED (substrate reduced or not) (Pseudomonas aeruginosa): N
- Co (growth, absorbance at 660 nm) [1]: +
- Decol (substrate decolourized, decrease in absorbance) [1]: −
- Fluo (fluorescence multiplied by 2 relative to substrate-free control) [1]: +
- RED (substrate reduced or not) [1]: Y
- Co (growth, absorbance at 660 nm) (Acinetobacter baumanii): +
- Decol (substrate decolourized, decrease in absorbance) (Acinetobacter baumanii): −
- Fluo (fluorescence multiplied by 2 relative to substrate-free control) (Acinetobacter baumanii): +
- RED (substrate reduced or not) (Acinetobacter baumanii): Y
- Co (growth, absorbance at 660 nm) (Enterococcus faecalis): +
- Decol (substrate decolourized, decrease in absorbance) (Enterococcus faecalis): +
- Fluo (fluorescence multiplied by 2 relative to substrate-free control) (Enterococcus faecalis): +
- RED (substrate reduced or not) (Enterococcus faecalis): Y
